This is an account of results in patent publication US6797721B2, “Phorboxazole derivatives for treating cancer” (Parker Hughes Institute, priority 1999, dated 2004).

Molecules are shown by their SMILES. pIC50: −log10 of the molar value. Read-outs that look alike come from different tables or passages of the source.

Assay [1] has as its system NALM-6 human B-lineage acute lymphoblastic leukemia cells. Nature of the assay: MTT cytotoxicity assay, NALM-6. It is filed as cell-based. Here is the method: (§1) The cytotoxicity assay of synthetic Phorboxazole A and various derivative compounds against human tumor cells was performed using the MTT (3-[4,5-dimethylthiazol-2-yl]-2,5-diphenyl tetrazolium bromide) assay (Boehringer Mannheim Corp., Indianapolis, Ind.). Briefly, exponentially growing brain tumor cells were seeded into a 96-well plate at a density of 2.5×10^4 cells/well and incubated for 36 hours at 37° C. prior to drug exposure. On the day of treatment, culture medium was carefully aspirated from the wells and replaced with fresh medium containing the various phorboxazole A derivative compounds as well as the tyrosine kinase inhibitory isoflavone genistein (GEN) at concentrations ranging from 0.1 to 250 μM. Triplicate wells were used for each treatment.
(§2) Human glioblastoma cells U373 (brain cancer), human B-lineage acute lymphoblastic leukemia cells NALM-6, and human breast cancer cells BT-20 were obtained from American Type Culture Collection (Rockville, Md.) and maintained as a continuous cell line in Dulbecco's modified Eagles's medium supplemented with 10% fetal bovine serum and antibiotics.
(§3) The cells were incubated with the various compounds for 24-36 hours at 37° C. in a humidified 5% CO2 atmosphere. To each well, 10 μl of MTT (0.5 mg/ml final concentration) was added and the plates were incubated at 37° C. for 4 hours to allow MTT to form formazan crystals by reacting with metabolically active cells. The fonnazan crystals were solubilized overnight at 37° C. in a solution containing 10% SDS in 0.01 M HCl. The absorbance of each well was measured in a microplate reader (Labsystems) at 540 nm and a reference wavelength of 690 nm. To translate the OD540 values into the number of live cells in each well, the OD540 values were compared to those on standard OD540-versus-cell number curves generated for each cell line. The percent survival was calculated using the formula: [formula]
(§4) The IC50 values were calculated by non-linear regression analysis.

Assay [2] relates to U373 human glioblastoma cells. The assay can be described thus: MTT cytotoxicity assay, U373. In kind it is cell-based. To be noted: U373 MG, read-out: IC50 [MTT]. Here is the method:
as §1, §2, §3, §4

Assay [3] has as its system BT-20 human breast cancer cells. Nature of the assay: MTT cytotoxicity assay, BT-20. It is filed as cell-based. Here is the method: as §1, §2, §3, §4
Assay [4] has as its system MDA-MB-231 breast cancer cells. Nature of the assay: In vitro adhesion assay to ECM proteins, MDA-MB-231. It is filed as cell-based, human. The settings on record: laminin-, fibronectin-, and collagen-coated plates, 0.1 μM to 1 μM for 24 hours. Here is the method: (§5) Human brain tumor cell lines U-373 MG and breast cancer cell lines BT-20 and MDA-MB-231 were obtained from American Type Culture Collection (ATCC, Rockville, Md.) and maintained in liquid culture using DMEM supplemented with 10% fetal bovine serum and antibiotics. Fibroblast conditioned medium was used as a source of chemoattractant in vitro invasion assays. Conditioned medium was prepared as described in the literature (Albini et.al., 1987, Cancer Res., 47:3239-3245).
(§6) In vitro adhesion assays were performed to (a) study the baseline adhesive properties of various breast cancer and glioblastoma cell lines and (b) evaluate the effects of phorboxazole A derivatives on the adhesive properties of breast cancer and glioblastoma cells. The plates for the adhesion assays were precoated with the extracellular matrix proteins laminin, fibronectin, or type IV collagen (each at a final concentration of 1 μg/ml in PBS) overnight at 4° C. and dried. On the day of the experiment, the wells were rehydrated and blocked with 10% bovine serum albumin in PBS for 1 hour at room temperature and used for the adhesion assays, as described below.
(§7) The effects of synthetic phorboxazole A and specific derivatives on adhesion of breast cancer and glioblastoma cells was studied. Exponentially growing cells in DMEM were incubated with phorboxazole compounds or genistein as a control at concentrations ranging from 0.1 μM to 1 μM for 24 hours in a humidified 5% CO2 atmosphere. DMSO (0.1%) was included as a vehicle control. After treatment, cells were detached from the flasks with 0.05% trypsin (Life Technologies) resuspended in DMEM, incubated at 37° C. for 2 hours to allow them to recover from the trypsinization stress and examined for their ability to adhere to plates precoated with ECM proteins.
(§8) In adhesion assays, cells were centrifuged, washed twice with serum-free DMEM, counted and resuspended in serum-free DMEM to a final concentration of 2.5×10^5 cells/ml. […] The adherent fraction was quantitated using MTT (3-[4,5-dimethylthiazol-2-yl]-2,5-diphenyltetrazolium bromide) assays. […] The absorbance of each well was measured in a microplate reader (Labsystems) at 540 nm and a reference wavelength of 690 nm.
(§9) To translate the OD540 values into the number of cells in each well, the OD540 values were compared to those on standard OD540-versus-cell number curves generated for each cell line. The adherent fractions of cells treated with phorboxazole A derivatives were compared to those of DMSO-treated control cells and the percent inhibition of adhesion was determined using the formula: [formula]
(§10) Each treatment condition was evaluated in duplicate in 3 independent experiments. The IC50 values were calculated by non-linear regression analysis. […]

For assay [5], the system named is U373 glioblastoma cells. The assay can be described thus: In vitro adhesion assay to ECM proteins, U373. It is filed as cell-based, human. To be noted: laminin-, fibronectin-, and collagen-coated plates, 0.1 μM to 1 μM for 24 hours. Here is the method:
as §5, §6, §7, §8, §9, §10

Assay [6] deals with BT-20 breast cancer cells. The assay can be described thus: In vitro adhesion assay to ECM proteins, BT-20. It is filed as cell-based, human. To be noted: laminin-, fibronectin-, and collagen-coated plates, 0.1 μM to 1 μM for 24 hours. Here is the method:
as §5, §6, §7, §8, §9, §10

Assay [7] concerns U373 glioblastoma cells. Nature of the assay: Matrigel invasion assay (Boyden chambers). It is filed as cell-based. The settings on record: Homo sapiens, U373 MG, read-out: IC50, inhibition of glioblastoma cell invasion through Matrigel. Here is the method: The in vitro invasiveness of human brain tumor cell lines U-373 MG and breast cancer cell lines BT-20 and MDA-MB-231 cells was assayed using a previously published method which employs Matrigel™-coated Costar 24-well transwell cell culture chambers (“Boyden chambers”) with 8.0-μm-pore polycarbonate filter inserts (Albini,et.al, 1987, Cancer Res., 47:3239-3245). The chamber filters were coated with 50 μg/ml of Matrigel™ matrix, incubated overnight at room temperature under a laminar flow hood and stored at 4° C. Matrigel™ matrix is made up of several components of the extracellular matrix (ECM), including collagen, laminin and proteo-glycans. The cancer cells were incubated with 500, 250, 125, 62.5, and 31.2 nM concentrations of the synthetic Phorboxazole compounds for 72 hours.
On the day of the experiment, the coated inserts were rehydrated with 0.5 ml serum-free DMEM containing 0.1% bovine serum albumin for 1-2 hours. The treated cells were trypsinized, washed twice with serum-free DMEM containing BSA, counted and resuspended at 1×10^5 cells/ml. A 0.5 ml cell suspension containing 5×10^4 cells in a serum-free DMEM was added to the Matrigel™-coated and rehydrated filter inserts. A volume of 750 μl of NIH fibroblast conditioned medium was placed as a chemoattractant in 24-well plates and the inserts were placed in wells and incubated at 37° C. for 48 hours.
The invasive cells that migrated to the lower side of the filter were fixed, stained with Hema-3 solutions and counted under microscope. Five to 10 random fields per filter were counted to determine the mean (±SE) values for the invasive fraction. The invasive fractions of cells treated with phorboxazole A derivatives were compared to those of DMSO treated control cells and the percent inhibition of invasiveness was determined using the formula: [formula]
Each treatment condition was evaluated in duplicate in 3 independent experiments. IC50 values were calculated by non-linear regression analysis using Graphpad Prisin Software Version 2.0 (Graphpad Software Inc., San Diego, Calif.).

[8] abbreviates: NALM-6 (leukemia, ALL), 24-36 hours, read-out: IC50 [MTT].
The mark [9] stands for this setting: U373 (brain tumor, glioblastoma), 24-36 hours.
Setting [10] is: BT-20 (breast cancer), 24-36 hours, read-out: IC50 [MTT].

Take `C=C1C[C@@H]2C[C@@H]3C[C@@H](O)C[C@@H](O3)c3coc(n3)/C=C/C[C@H]3O[C@@H](/C(C)=C/c4coc(C)n4)[C@H](C)[C@@H](OC(=O)/C=C\C[C@@H](C1)O2)[C@H]3C` [Compound 2, 32-Methyl-phorboxolide A (C1-C32 analog)]: the pIC50 was less than 5.70 in assay [1] (NALM-6, read-out: IC50 [MTT]); less than 5.70 in assay [2]; less than 5.70 in assay [3] (BT-20, read-out: IC50 [MTT]).

On to `C=C1C[C@@H]2C[C@@H]3C[C@@H](O)C[C@@H](O3)c3coc(n3)/C=C/C[C@H]3O[C@@H](/C(C)=C/c4coc(C[C@]5(O)C[C@H](OC)C[C@H](CO)O5)n4)[C@H](C)[C@@H](OC(=O)/C=C\C[C@@H](C1)O2)[C@H]3C` [Compound 3, C1-C38 Phorboxazole A], for which the pIC50 in assay [1] (setting [8]), in assay [2] (setting [9]) and in assay [3] (setting [10]) was less than 5.70 throughout.

On to `COC(=O)/C=C/C[C@H]1O[C@@H](/C(C)=C/c2coc(C[C@]3(O)C[C@H](OC)C[C@H]([C@H](O)/C=C(C)/C=C/[C@@H](C/C=C/Br)OC)O3)n2)[C@H](C)[C@@H](OC(C)=O)[C@H]1C` [Compound 4, 24-O-Acetyl-18-methyl-phorboxylate (C18-C46 analog)], for which the “Inhibition of cell adhesion” value (in assay [4]; with U373 glioblastoma cells [5]; in assay [6]) was “active” each time. Also, the pIC50 in assay [1] (NALM-6, read-out: IC50 [MTT]) is less than 5.70; in assay [2] it was less than 5.70; in assay [3] (BT-20, read-out: IC50 [MTT]), less than 5.70; in the assay with U373 glioblastoma cells [7], 6.82.

Take `COC(=O)C[C@]1(O)C[C@H](OC)C[C@H]([C@H](O)/C=C(C)/C=C/[C@@H](C/C=C/Br)OC)O1` [Compound 5, 31-Methyl-phorboxylate (C31-C46 analog)]: the “Inhibition of cell adhesion” value (in assay [4]; with U373 glioblastoma cells [5]; in assay [6]) was “active” each time. Also, the pIC50 in assay [1] (NALM-6, read-out: IC50 [MTT]) was less than 5.70; in assay [2] it was less than 5.70; in assay [3] (BT-20, read-out: IC50 [MTT]), less than 5.70; in the assay on U373 glioblastoma cells [7], 6.37.

Consider `C=C1C[C@@H]2C[C@@H]3C[C@@H](O)C[C@@H](O3)c3coc(n3)/C=C/C[C@H]3O[C@@H](/C(C)=C/C(CO)NC(=O)C[C@]4(O)C[C@H](OC)C[C@H]([C@H](O)/C=C(C)/C=C/[C@@H](C/C=C/Br)OC)O4)[C@H](C)[C@@H](OC(=O)/C=C\C[C@@H](C1)O2)[C@H]3C` (stereo partly drawn) [Compound 6, 29-Phorboxamide A (hydrated analog)], for which the “Inhibition of cell adhesion” value (in assay [4]; in the assay on U373 glioblastoma cells [5]; in assay [6]) was “active” throughout. Further, the pIC50 in assay [1] (setting [8]) was less than 5.70; in assay [2] (setting [9]), less than 5.70; in assay [3] (setting [10]) it was less than 5.70; in the assay with U373 glioblastoma cells [7] (cells treated 72 hours, invasion 48 hours) it was greater than 6.90.

In the case of `C#CC[C@H](/C=C/C(C)=C/[C@@H](O)[C@H]1C[C@@H](OC)C[C@](Cc2nc(/C=C(\C)[C@@H]3O[C@@H]4C/C=C/c5nc(co5)[C@H]5C[C@H](O)C[C@@H](C[C@H]6CC(=C)C[C@H](C/C=C\C(=O)O[C@@H]([C@H]4C)[C@H]3C)O6)O5)co2)(OC)O1)OC` [Compound 7, 45,46-Dehydrobromo-33-O-methyl-Phorboxazole A], the pIC50 in assay [1] (setting [8]), in assay [2] (setting [9]) and in assay [3] (setting [10]) was less than 5.70 in each case.

For `C=C1C[C@@H]2C[C@@H]3C[C@@H](O)C[C@@H](O3)c3coc(n3)/C=C/C[C@H]3O[C@@H](/C(C)=C/c4coc(C[C@]5(O)C[C@H](OC)C[C@H]([C@H](O)/C=C(C)/C=C/[C@@H](C/C=C/Br)OC)O5)n4)[C@H](C)[C@@H](OC(=O)CCC[C@@H](C1)O2)[C@H]3C` [Compound 10, 2,3-Dihydrophorboxazole A], the pIC50 in assay [1] (setting [8]), in assay [2] (setting [9]) and in assay [3] (setting [10]) was less than 5.70 in each case.
